According to PubChem BioAssay (NCI):
“And” between values parts separate entries of the source, which are not always exact repeats. Identical values can stand only once.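 Interpolation was linear, between the two tested concentrations surrounding the appropriate level; five concentrations were tested over 48 hours in 96-well plates. GI50: concentration for 50% inhibition of growth. At the TGI there is no net growth.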

Legend:
Assay in all cases: inhibition of tumour cell growth, NCI panel, 48 h
CCRF-CEM leukemia = tested on: CCRF-CEM leukemia
HOP-92 NSCLC = tested on: HOP-92 NSCLC
LOX IMVI melanoma = tested on: LOX IMVI melanoma
NCI-H23 lung = tested on: NCI-H23 lung
NCI-H522 lung = tested on: NCI-H522 lung
NCI/ADR-RES ovarian = tested on: NCI/ADR-RES ovarian
OVCAR-5 ovarian = tested on: OVCAR-5 ovarian
U251 CNS = tested on: U251 CNS
UACC-62 melanoma = tested on: UACC-62 melanoma
UO-31 renal = tested on: UO-31 renal

Structure (SMILES) | TGI (CCRF-CEM leukemia) | TGI (HOP-92 NSCLC) [µM] | TGI (LOX IMVI melanoma) | TGI (NCI-H23 lung) [µM] | TGI (NCI-H522 lung) [µM] | TGI (NCI/ADR-RES ovarian) [µM] | TGI (OVCAR-5 ovarian) [µM] | TGI (U251 CNS) [µM] | TGI (UACC-62 melanoma) [µM] | TGI (UO-31 renal) [µM] | GI50 (CCRF-CEM leukemia) | GI50 (HOP-92 NSCLC) | GI50 (LOX IMVI melanoma) [nM] | GI50 (NCI-H23 lung) | GI50 (NCI-H522 lung) [nM] | GI50 (NCI/ADR-RES ovarian) | GI50 (OVCAR-5 ovarian) [nM] | GI50 (U251 CNS) | GI50 (UACC-62 melanoma) [nM] | GI50 (UO-31 renal) [nM]
O=C(CNc1ccccc1[N+](=O)[O-])Nn1c(-c2ccccc2)nc2ccccc2c1=O | 43.6 µM | 28.3 | 24.7 µM | 76.5 | > 10 | 64.3 | 41.3 | 40.6 | 23.4 | 33.7 | – | – | – | – | – | – | – | – | – | –
C=C1CCC2C(C)(COC(=O)CC)C(OC(=O)CC)CCC2(C)C1C/C=C1/C(=O)OCC1OC(=O)CC (stereo not given) | > 100 µM | 7.15 | 3.01 µM | 13.2 | 1.7 | 10.5 | 5.35 | 2.59 | 5.2 | 3.38 | 0.558 µM | 3.03 µM | 1510 | 3.39 µM | 346 | 2.84 µM | 2450 | 1300 nM | 2230 | 1880
COc1ccc(-c2c3c(n(C4OC(COC(C)=O)C(OC(C)=O)C(OC(C)=O)C4OC(C)=O)c(=S)c2C#N)CC(C)(C)CC3=O)cc1 (stereo not given) | 57.2 µM and > 100 µM | > 100 | 97.5 µM and 77.2 µM | > 100 | > 100 | > 100 | > 100 | > 100 | > 100 | > 100 | 21.5 µM and 71.7 µM | 32.7 µM and > 100 µM | – | 39.9 µM and > 100 µM | – | 41.6 µM and > 100 µM | – | 34900 nM and > 100000 nM | – | –
CCn1c(-c2cc3ccccc3cc2O)nn(C(=O)c2c(Cl)cccc2Cl)c1=S | > 50 µM | > 50 | > 50 µM | > 50 | > 50 | > 50 | > 50 | > 50 | > 50 | 24.8 | 27.1 µM | > 50 µM | > 50000 | 20.3 µM | 21600 | > 50 µM | > 50000 | 19500 nM | 17200 | 10500
COc1cccc(C2c3cc4c(cc3OC(N3CCCC3)C2C)OCO4)c1O (stereo not given) | > 100 µM | 41.5 | > 66.2 µM | 34.9 | 20 | 47.1 | > 100 | 25.8 | 43.7 | 46.7 | – | – | – | – | – | – | – | – | – | –
Cn1c2ccc(Br)cc2c2c3c(c4c5ccccc5[nH]c4c21)C(=O)N(O)C3=O | 0.956 µM | 0.451 | 0.193 µM | 0.398 | 0.286 | > 100 | 3.73 | 0.266 | 0.529 | 0.308 | 0.0412 µM | 0.0893 µM | 53.7 | 0.0872 µM | 50.6 | 0.357 µM | 1330 | 86.5 nM | 183 | 91.7
CCN(CC)CCCNC(=O)c1c2c(n3ccccc13)C(=O)c1ncccc1C2=O | > 100 µM | 4.87 | 1.8 µM | 1.99 | 2.32 | 23.4 | 4.9 | 2.89 | 2.21 | 5.07 | 2.21 µM | 2.22 µM | 391 | 0.252 µM | 515 | 3.02 µM | 1180 | 1370 nM | 472 | 1590
Cc1cccc(C)c1NC(=O)Nc1ccc(S(N)(=O)=O)cc1 | > 100 µM | > 100 | > 100 µM | > 100 | > 100 | > 100 | > 100 | > 100 | > 100 | > 100 | – | – | – | – | – | – | – | – | – | –
